Experimental data as given in the supplement of paper PMC10307832.

Experiments:
Assay in all cases: relative viability (nuclei count vs DMSO), 5 days (fraction); higher = more cells survive
Carboplatin + Linsitinib = compound: C1CC(C1)(C(=O)O)C(=O)O.[NH2-].[NH2-].[Pt+2] [Carboplatin] + C[C@]1(O)C[C@@H](c2nc(-c3ccc4ccc(-c5ccccc5)nc4c3)c3c(N)nccn32)C1 [Linsitinib] (partner 1 µM)
Method in brief: (§1)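 Relative viability was taken as the ratio of nuclei in treated wells to nuclei in vehicle wells. Lung cancer cell lines in 1536-well plates received compounds by pin tool one day after seeding, either one drug alone or a fixed anchor-drug dose plus five library-drug doses (not always all listed) in √10 steps. Nuclei were counted on 4× images after 5 days of treatment, and values are medians of duplicate plates.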

Carboplatin + Olaparib = compound: C1CC(C1)(C(=O)O)C(=O)O.[NH2-].[NH2-].[Pt+2] [Carboplatin] + O=C(c1cc(Cc2n[nH]c(=O)c3ccccc23)ccc1F)N1CCN(C(=O)C2CC2)CC1 [Olaparib] (partner 8 µM)
Method in brief: as §1

GSK126 + Alpelisib = compound: CC[C@H](C)N1C=C(C2=C(C=C(C=C21)C3=CN=C(C=C3)N4CCNCC4)C(=O)NCC5=C(C=C(NC5=O)C)C)C [GSK126] + Cc1nc(NC(=O)N2CCC[C@H]2C(N)=O)sc1-c1ccnc(C(C)(C)C(F)(F)F)c1 [Alpelisib] (partner 2 µM)
Method in brief: as §1

GSK126 + Dasatinib = compound: CC[C@H](C)N1C=C(C2=C(C=C(C=C21)C3=CN=C(C=C3)N4CCNCC4)C(=O)NCC5=C(C=C(NC5=O)C)C)C [GSK126] + Cc1nc(Nc2ncc(C(=O)Nc3c(C)cccc3Cl)s2)cc(N2CCN(CCO)CC2)n1 [Dasatinib] (partner 0.075 µM)
Method in brief: as §1

Cell Line	relative viability (Carboplatin + Linsitinib; first compound 0.08 µM)	relative viability (Carboplatin + Linsitinib; first compound 0.253 µM)	relative viability (Carboplatin + Linsitinib; first compound 0.8 µM)	relative viability (Carboplatin + Linsitinib; first compound 2.53 µM)	relative viability (Carboplatin + Linsitinib; first compound 8 µM)	relative viability (Carboplatin + Olaparib; first compound 0.08 µM)	relative viability (Carboplatin + Olaparib; first compound 0.253 µM)	relative viability (Carboplatin + Olaparib; first compound 0.8 µM)	relative viability (Carboplatin + Olaparib; first compound 2.53 µM)	relative viability (Carboplatin + Olaparib; first compound 8 µM)	relative viability (GSK126 + Alpelisib; first compound 0.08 µM)	relative viability (GSK126 + Alpelisib; first compound 0.253 µM)	relative viability (GSK126 + Alpelisib; first compound 0.8 µM)	relative viability (GSK126 + Alpelisib; first compound 2.53 µM)	relative viability (GSK126 + Alpelisib; first compound 8 µM)	relative viability (GSK126 + Dasatinib; first compound 0.08 µM)	relative viability (GSK126 + Dasatinib; first compound 0.253 µM)	relative viability (GSK126 + Dasatinib; first compound 0.8 µM)	relative viability (GSK126 + Dasatinib; first compound 2.53 µM)	relative viability (GSK126 + Dasatinib; first compound 8 µM)
201T	1.06	1.04	0.976	1	0.962	0.869	0.836	0.872	0.822	0.774	0.999	1.07	1.02	1.05	1.1	0.558	0.639	0.61	0.607	0.519
NCI-H23	0.536	0.716	0.542	0.563	0.492	0.4	0.31	0.281	0.28	0.24	0.74	0.628	0.565	0.779	0.76	0.884	0.789	0.782	0.858	0.749
LCLC-103H	1.15	1.1	1.05	1.21	1.04	0.754	0.783	0.777	0.74	0.754	0.953	1.02	0.927	0.992	1.03	0.485	0.45	0.464	0.447	0.51
NCI-H2087	1.09	0.857	0.782	0.871	0.585	0.69	0.674	0.578	0.553	0.328	0.993	1.21	1.26	0.919	1.05	1.14	0.707	0.856	0.78	0.908
